Like-named read-outs stand apart in the source and are kept apart here.
What was measured:
[1] = system: green peach aphid (Myzus persicae); test: Myzus test (MYZUPE spray treatment); assay type: in vivo; settings: Myzus persicae, foliar, read-out: effect in % (aphids killed)
Source text: Solvent: 78 parts by weight of acetone
(§1) Solvent: 78.0 parts by weight of acetone

[2] = system: caterpillars of the armyworm (Spodoptera frugiperda); test: Spodoptera frugiperda test (SPODFR spray treatment); assay type: in vivo; settings: Spodoptera frugiperda, foliar, read-out: effect in % (caterpillars killed)
Source text: as §1

[3] = log P determination by HPLC (EEC Directive 79/831 Annex V.A8); assay type: physicochemical
Experimental: The measurements were carried out using an Agilent 1100 LC system with a 50*4.6 Zorbax Eclipse C18 1.8 μm column (oven temperature 55° C., flow rate 2.0 ml/min).
The following mobile phases were used:
Mobile phase A: acetonitrile+1000 μl of formic acid/l
Mobile phase B: Millipore water+900 μl of formic acid/l

[4] = system: larvae of the mustard beetle (Phaedon cochleariae); test: Phaedon test (PHAECO spray treatment); settings: Phaedon cochleariae, in Brassica rapa, foliar, read-out: effect in % (beetle larvae killed)
[5] = application rate 100 g/ha, Chinese cabbage leaf discs
[6] = application rate 100 g/ha, maize leaf discs
[7] = reversed-phase HPLC, Zorbax Eclipse C18 column, by HPLC according to EEC Directive 79/831 Annex V.A8, read-out: log P
[8] = reversed-phase HPLC, Zorbax Eclipse C18 column, determined by HPLC according to EEC Directive 79/831 Annex V.A8, read-out: log P

chromatographic logP [3, 7] | chromatographic logP [3, 8] | SMILES | pest or weed control at 100 g/ha ([1]; in Brassica rapa) | pest or weed control at 100 g/ha ([2]; in Zea mays) | chromatographic logP ([3]; log P) | pest or weed control at 100 g/ha [4] | pest or weed control at 100 g/ha [1, 5] | pest or weed control at 100 g/ha [2, 6]
– | – | Cc1cc(C#N)cc(C(=O)NC2(C)CCC2)c1NC(=O)c1cc(Cn2nnc(C(F)(F)F)n2)nn1-c1ncccc1Cl [Example 89] | ≥ 80% | ≥ 80% | 3.46 | ≥ 80% | – | –
– | – | NC(=O)c1cc(Cl)cc(Cl)c1NC(=O)c1cc(Cn2nnc(C(F)(C(F)(F)F)C(F)(F)F)n2)nn1-c1ncccc1Cl [Example 391] | ≥ 80% | ≥ 80% | 3.41 | ≥ 80% | – | –
3.58 | – | CNC(=O)c1cc(C#N)cc(C)c1NC(=O)c1cc(Cn2nnc(C(F)(F)F)n2)nn1-c1ncccc1Br [Example 314] | – | – | – | ≥ 80% | ≥ 80% | ≥ 80%
4.63 | – | CSC[C@H](C)NC(=O)c1cc(I)cc(C)c1NC(=O)c1cc(Cn2nnc(C(F)(C(F)(F)F)C(F)(F)F)n2)nn1-c1ncccc1Cl [Example 385] | – | – | – | ≥ 80% | ≥ 80% | ≥ 80%
– | – | Cc1cc(C#N)cc(C(=O)NCC(F)F)c1NC(=O)c1cc(Cn2nnc(C(F)(F)F)n2)nn1-c1ncccc1Cl [Example 91] | ≥ 80% | ≥ 80% | 2.91 | ≥ 80% | – | –
– | – | CC(C)(C)NC(=O)c1cc(Cl)cc(Cl)c1NC(=O)c1cc(Cn2nnnc2C(F)F)nn1-c1ncccc1Cl [Example 471] | ≥ 80% | ≥ 80% | 3.05 | ≥ 80% | – | –
– | – | Cc1cc(F)cc(C(=O)NC(C)C2CC2)c1NC(=O)c1cc(Cn2nnc(C(F)(F)F)n2)nn1-c1ncccc1Cl (stereo not drawn) [Example 32] | ≥ 80% | ≥ 80% | 3.41 | ≥ 80% | – | –
– | – | Cc1cc(Cl)cc(C(=O)NC(C)(C)C)c1NC(=O)c1cc(Cn2nnnc2C(F)F)nn1-c1ncccc1Cl [Example 475] | ≥ 80% | ≥ 80% | 3.09 | ≥ 80% | – | –
– | – | CNC(=O)c1cc(Cl)cc(Cl)c1NC(=O)c1cc(Cn2nnc(C(F)(F)F)n2)nn1-c1ncccc1Cl [Example 54] | ≥ 80% | ≥ 80% | 2.93 | ≥ 80% | – | –
– | – | CNC(=O)c1cc(I)cc(C)c1NC(=O)c1cc(Cn2nnc(C(F)(F)F)n2)nn1-c1ncccc1Cl [Example 65] | ≥ 80% | ≥ 80% | 3.21 | ≥ 80% | – | –
– | – | Cc1cc(F)cc(C(=O)NC(C)C)c1NC(=O)c1cc(Cn2nnnc2C(F)(F)F)nn1-c1ncccc1Cl [Example 168] | ≥ 80% | ≥ 80% | 2.76 | ≥ 80% | – | –
3.43 | – | Cc1cc(C#N)cc(C(=O)NC(C)(C)C)c1NC(=O)c1cc(Cn2nnc(C(F)(F)F)n2)nn1-c1ncccc1Br [Example 332] | – | – | – | ≥ 80% | ≥ 80% | ≥ 80%
– | – | CCNC(=O)c1cc(C#N)cc(C)c1NC(=O)c1cc(C(C)n2nnnc2C(F)(F)F)nn1-c1ncccc1Cl (stereo not drawn) [Example 521] | ≥ 80% | ≥ 80% | 2.74 | ≥ 80% | – | –
– | – | Cc1cc(Cl)cc(C(=O)NC(C)C2CC2)c1NC(=O)c1cc(Cn2nnc(C(F)(F)F)n2)nn1-c1ncccc1Cl (stereo not drawn) [Example 30] | ≥ 80% | ≥ 80% | 3.79 | ≥ 80% | – | –
– | – | Cc1cc(Cl)cc(C(=O)NC(C)CF)c1NC(=O)c1cc(Cn2nnc(C(F)(F)F)n2)nn1-c1ncccc1Cl (stereo not drawn) [Example 328] | ≥ 80% | ≥ 80% | 3.3 | ≥ 80% | – | –
– | – | Cc1cc(C#N)cc(C(=O)NC(C)C2CC2)c1NC(=O)c1cc(Cn2nnc(C(F)(F)C(F)(F)F)n2)nn1-c1ncccc1Cl (stereo not drawn) [Example 134] | ≥ 80% | ≥ 80% | 3.84 | ≥ 80% | – | –
– | – | CSC[C@H](C)NC(=O)c1cc(Cl)cc(Cl)c1NC(=O)c1cc(Cn2nnc(C(F)(F)F)n2)nn1-c1ncccc1Cl [Example 64] | ≥ 80% | ≥ 80% | 3.62 | ≥ 80% | – | –
– | – | CC(C)NC(=O)c1cc(Cl)cc(Cl)c1NC(=O)c1cc(Cn2nnc(C(F)(F)C(F)(F)F)n2)nn1-c1ncccc1Cl [Example 153] | ≥ 80% | ≥ 80% | 3.81 | ≥ 80% | – | –
– | – | Cc1cc(I)cc(C(=O)NCC#N)c1NC(=O)c1cc(Cn2nnc(C(F)(F)F)n2)nn1-c1ncccc1Cl [Example 70] | ≥ 80% | ≥ 80% | 3.14 | ≥ 80% | – | –
– | – | C=CCNC(=O)c1cc(C#N)cc(C)c1NC(=O)c1cc(Cn2nnc(C(F)(F)F)n2)nn1-c1ncccc1Cl [Example 320] | ≥ 80% | ≥ 80% | 2.97 | ≥ 80% | – | –
– | 3.52 | Cc1cc(Cl)cc(C(=O)NC(C)(C)C)c1NC(=O)c1cc(Cn2nnnc2C(F)(F)F)nn1-c1ncccc1Br [Example 484] | – | – | – | ≥ 80% | ≥ 80% | ≥ 80%
– | 2.64 | Cc1cc(Cl)cc(C(=O)NCC#N)c1NC(=O)c1cc(Cn2nnnc2C(F)(F)F)nn1-c1ncccc1Br [Example 486] | – | – | – | ≥ 80% | ≥ 80% | ≥ 80%
– | – | Cc1cc(I)cc(C(=O)NC(C)C)c1NC(=O)c1cc(Cn2nnnc2C(F)(F)F)nn1-c1ncccc1Cl [Example 173] | ≥ 80% | ≥ 80% | 3.36 | ≥ 80% | – | –
– | – | Cc1cc(I)cc(C(=O)NC2CCC2)c1NC(=O)c1cc(Cn2nnc(C(F)F)n2)nn1-c1ncccc1Cl [Example 280] | ≥ 80% | ≥ 80% | 3.34 | ≥ 80% | – | –
– | 3.41 | Cc1cc(I)cc(C(=O)NC(C)C)c1NC(=O)c1cc(Cn2nnnc2C(F)(F)F)nn1-c1ncccc1Br [Example 504] | – | – | – | ≥ 80% | ≥ 80% | ≥ 80%
– | 2.72 | CNC(=O)c1cc(C#N)cc(C)c1NC(=O)c1cc(Cn2nnnc2C(F)(F)C(F)(F)F)nn1-c1ncccc1Br [Example 516] | – | – | – | ≥ 80% | ≥ 80% | ≥ 80%
– | – | CNC(=O)c1cc(Cl)cc(C)c1NC(=O)c1cc(Cn2nnc(C3CC3)n2)nn1-c1ncccc1Cl [Example 104] | ≥ 80% | ≥ 80% | 2.52 | ≥ 80% | – | –

Source: patent US8324390B2, “Tetrazole-substituted anthranilamides as pesticides” (Bayer CropScience AG, priority 2008, dated 2012)
